Measurements published in ChEMBL document CHEMBL5316299, “Discovery of Novel Drug-like PHGDH Inhibitors to Disrupt Serine Biosynthesis for Cancer Therapy” (J Med Chem, 2023).
Values belong to the molecule of their own block, whether it stands above or below them.

How the values were obtained:
[1] = target: T1, D-3-phosphoglycerate dehydrogenase (Homo sapiens, UniProt O43175); test: Inhibition of PHGDH (unknown origin) preincubated for 30 mins followed by substrate addition and measured after 5 mins
T1 sequence (O43175 whole entry): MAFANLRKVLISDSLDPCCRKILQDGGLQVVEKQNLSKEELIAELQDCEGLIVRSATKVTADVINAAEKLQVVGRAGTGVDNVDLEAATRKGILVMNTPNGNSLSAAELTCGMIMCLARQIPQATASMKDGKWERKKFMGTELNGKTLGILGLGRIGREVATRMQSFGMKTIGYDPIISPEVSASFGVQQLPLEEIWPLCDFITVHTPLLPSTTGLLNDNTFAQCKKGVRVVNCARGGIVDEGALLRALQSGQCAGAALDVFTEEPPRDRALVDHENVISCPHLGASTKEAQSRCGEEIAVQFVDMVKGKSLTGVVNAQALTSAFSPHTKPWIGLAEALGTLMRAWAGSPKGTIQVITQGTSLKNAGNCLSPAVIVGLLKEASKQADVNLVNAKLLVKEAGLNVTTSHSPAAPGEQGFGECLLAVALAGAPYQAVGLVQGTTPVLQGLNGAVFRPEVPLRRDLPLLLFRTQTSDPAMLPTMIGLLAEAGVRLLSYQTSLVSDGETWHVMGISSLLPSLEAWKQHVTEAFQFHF

MDA-MB-468 = test: Antiproliferative activity against human MDA-MB-468 cells expressing PHGDH assessed as reduction in cell viability measured for 72 hrs by CCK-8 assay; format: functional, cell-based; settings: MDA-MB-468, 72 h
MCF-10A = test: Antiproliferative activity against human MCF-10A cells assessed as reduction in cell viability measured for 72 hrs by CCK-8 assay; format: functional, cell-based
[2] = Microsomal stability in human liver microsomes assessed as half life measured upto 60 mins by HPLC-MS/MS analysis; format: ADME, Microsome
[3] = Microsomal stability in rat liver microsomes assessed as half life measured upto 60 mins by HPLC-MS/MS analysis; format: ADME, Microsome
[4] = Microsomal stability in mouse liver microsomes assessed as half life measured upto 60 mins by HPLC-MS/MS analysis; format: ADME, Microsome
[5] = Microsomal stability in human liver microsomes assessed as intrinsic clearance measured upto 60 mins by HPLC-MS/MS analysis; format: ADME, Microsome; settings: 1 h
[6] = Microsomal stability in rat liver microsomes assessed as intrinsic clearance measured upto 60 mins by HPLC-MS/MS analysis; format: ADME, Microsome; settings: 1 h
[7] = Microsomal stability in mouse liver microsomes assessed as intrinsic clearance measured upto 60 mins by HPLC-MS/MS analysis; format: ADME, Microsome; settings: 1 h
[8] = target: T1, D-3-phosphoglycerate dehydrogenase; test: Inhibition of wild type PHGDH (unknown origin) preincubated for 30 mins followed by substrate addition and measured after 5 mins
[9] = target: D-3-phosphoglycerate dehydrogenase (Homo sapiens, UniProt O43175, D175A); test: Inhibition of PHGDH D175A mutant (unknown origin) preincubated for 30 mins followed by substrate addition and measured after 5 mins
BT-20 = test: Antiproliferative activity against human BT-20 cells expressing PHGDH assessed as reduction in cell viability measured for 72 hrs by CCK-8 assay; format: functional, cell-based; settings: BT-20, 72 h
PC-9 = test: Antiproliferative activity against human PC-9 cells expressing PHGDH assessed as reduction in cell viability measured for 72 hrs by CCK-8 assay; format: functional, cell-based; settings: PC-9, 72 h
NCI-H1975 = test: Antiproliferative activity against human NCI-H1975 cells expressing PHGDH assessed as reduction in cell viability measured for 72 hrs by CCK-8 assay; format: functional, cell-based; settings: NCI-H1975, 72 h
HCT-116 = test: Antiproliferative activity against human HCT-116 cells expressing PHGDH assessed as reduction in cell viability measured for 72 hrs by CCK-8 assay; format: functional, cell-based; settings: HCT-116, 72 h
HCC827 = test: Antiproliferative activity against human HCC827 cells expressing PHGDH assessed as reduction in cell viability measured for 72 hrs by CCK-8 assay; format: functional, cell-based; settings: HCC827, 72 h
[10] = substrate: CC(=O)c1cccc(NS(=O)(=O)c2ccc(C(=O)Nc3nc(-c4cccc(F)c4)cs3)cc2)c1; settings: Homo sapiens; dose 25.0 µM, time 35.0 min
[11] = substrate: CC(=O)c1cccc(NS(=O)(=O)c2ccc(C(=O)Nc3nc(-c4cccc(F)c4)cs3)cc2)c1; settings: Homo sapiens; dose 12.5 µM, time 35.0 min
[12] = substrate: CC(=O)c1cccc(NS(=O)(=O)c2ccc(C(=O)Nc3nc(-c4cccc(F)c4)cs3)cc2)c1; settings: Homo sapiens; dose 6.3 µM, time 35.0 min
[13] = substrate: CC(=O)c1cccc(NS(=O)(=O)c2ccc(C(=O)Nc3nc(-c4cccc(F)c4)cs3)cc2)c1; settings: Homo sapiens; dose 3.1 µM, time 35.0 min
[14] = substrate: CC(=O)c1cccc(NS(=O)(=O)c2ccc(C(=O)Nc3nc(-c4cccc(F)c4)cs3)cc2)c1; settings: Homo sapiens; dose 25.0 µM, time 35.0 min; remark: listed apart in the source
[15] = substrate: CC(=O)c1cccc(NS(=O)(=O)c2ccc(C(=O)Nc3nc(-c4cccc(F)c4)cs3)cc2)c1; settings: Homo sapiens; dose 12.5 µM, time 35.0 min; remark: listed apart in the source
[16] = substrate: CC(=O)c1cccc(NS(=O)(=O)c2ccc(C(=O)Nc3nc(-c4cccc(F)c4)cs3)cc2)c1; settings: Homo sapiens; dose 6.3 µM, time 35.0 min; remark: listed apart in the source

Chain of D-3-phosphoglycerate dehydrogenase (Homo sapiens, UniProt O43175, D175A) (O43175 2-533 D175A limits assumed): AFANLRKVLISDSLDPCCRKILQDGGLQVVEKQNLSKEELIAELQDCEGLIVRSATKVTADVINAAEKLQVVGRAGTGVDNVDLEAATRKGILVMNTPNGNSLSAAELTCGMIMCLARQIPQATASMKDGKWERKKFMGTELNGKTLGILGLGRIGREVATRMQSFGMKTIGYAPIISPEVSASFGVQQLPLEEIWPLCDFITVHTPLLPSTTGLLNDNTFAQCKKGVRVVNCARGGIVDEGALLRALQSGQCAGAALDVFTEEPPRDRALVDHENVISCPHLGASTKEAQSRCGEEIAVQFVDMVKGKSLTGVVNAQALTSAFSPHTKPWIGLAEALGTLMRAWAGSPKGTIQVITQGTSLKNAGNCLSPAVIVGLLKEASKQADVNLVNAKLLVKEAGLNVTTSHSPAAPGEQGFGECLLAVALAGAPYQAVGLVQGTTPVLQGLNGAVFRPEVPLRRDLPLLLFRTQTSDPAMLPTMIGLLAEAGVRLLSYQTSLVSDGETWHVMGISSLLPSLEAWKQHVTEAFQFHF

Molecule: O=C(Nc1nc(-c2ccccc2)cs1)c1ccc(S(=O)(=O)Nc2cccc(N3CCOCC3)c2)cc1
IC50 [1]: 7.04 µM
IC50 (MDA-MB-468): > 100 µM
IC50 (MCF-10A): > 100 µM

IC50 [1]: 15.7 µM
Molecule: CN(C)CCNS(=O)(=O)c1ccc(C(=O)Nc2nc(-c3ccccc3)cs2)cc1

Molecule: Cc1cc(C)nc(NS(=O)(=O)c2ccc(C(=O)Nc3nc(-c4ccccc4)cs3)cc2)n1
IC50 [1]: 3.19 µM
IC50 (MDA-MB-468): 30.1 µM
IC50 (MCF-10A): 86.5 µM

Molecule: COc1cccc(-c2csc(NC(=O)c3ccc(S(=O)(=O)Nc4cccc(C(C)=O)c4)cc3)n2)c1
IC50 [1]: 4.8 µM
IC50 (MDA-MB-468): 4.8 µM
IC50 (MCF-10A): 100 µM
half-life [2]: 0.85 min
half-life [3]: 0.84 min
half-life [4]: 0.85 min
CLH [5]: 2485.8 mL/min/g
CLH [6]: 2500.2 mL/min/g
CLH [7]: 2471.9 mL/min/g

IC50 [1]: 13 µM
Molecule: O=C(Nc1nc(-c2ccccc2)cs1)c1ccc(S(=O)(=O)N2CCC(C(=O)O)CC2)cc1

Molecule: O=C(O)Cc1cccc(NS(=O)(=O)c2ccc(C(=O)Nc3nc(-c4ccccc4)cs3)cc2)c1
IC50 [1]: 7.89 µM
IC50 (MDA-MB-468): > 100 µM
IC50 (MCF-10A): > 100 µM

Molecule: O=C(Nc1nc(-c2ccccc2)cs1)c1ccc(S(=O)(=O)O)cc1
IC50 [1]: 12.6 µM
IC50 (MDA-MB-468): > 100 µM

IC50 [1]: 6.7 µM
Molecule: CC(=O)c1cccc(NS(=O)(=O)c2ccc(C(=O)Nc3nc(-c4ccc(F)cc4F)cs3)cc2)c1

Molecule: O=C(Nc1nc(-c2ccccc2)cs1)c1ccc(S(=O)(=O)Nc2ccccc2)cc1
IC50 [1]: 6.5 µM
IC50 (MDA-MB-468): 11.6 µM
IC50 (MCF-10A): > 100 µM

IC50 [1]: 18.5 µM
Molecule: O=C(Nc1nc(-c2ccccc2)cs1)c1ccc(S(=O)(=O)Cl)cc1

IC50 [1]: 12.9 µM
Molecule: CC(=O)c1cccc(NS(=O)(=O)c2ccc(C(=O)Nc3cc(-c4ccccc4)cs3)cc2)c1

Molecule: O=C(O)c1cccc(NS(=O)(=O)c2ccc(C(=O)Nc3nc(-c4ccccc4)cs3)cc2)c1
IC50 [1]: 3.59 µM
IC50 (MDA-MB-468): > 100 µM
IC50 (MCF-10A): > 100 µM

Molecule: Cc1cc(Cl)c2cc(C(=O)N[C@H](CO)c3ccc(S(=O)(=O)CC(=O)O)cc3)n(C)c2c1
IC50 [1]: 0.106 µM
IC50 (MDA-MB-468): > 100 µM
IC50 (MCF-10A): > 100 µM
IC50 [8]: 0.1 µM
IC50 [9]: > 3 µM

Molecule: CC(=O)N1CCC(NS(=O)(=O)c2ccc(C(=O)Nc3nc(-c4ccccc4)cs3)cc2)CC1
IC50 [1]: 6.81 µM
IC50 (MDA-MB-468): 72.3 µM
IC50 (MCF-10A): > 100 µM

Molecule: CC(=O)c1cccc(NS(=O)(=O)c2ccc(C(=O)Nc3nc(-c4ccccc4)cs3)cc2)c1
IC50 [1]: 5.33 µM
IC50 (MDA-MB-468): 8.4 µM
IC50 (MCF-10A): > 100 µM

IC50 [1]: 17.8 µM
Molecule: COCCNS(=O)(=O)c1ccc(C(=O)Nc2nc(-c3ccccc3)cs2)cc1

Molecule: CC(=O)c1cccc(NS(=O)(=O)c2ccc(C(=O)Nc3nc(-c4cccc(C)c4)cs3)cc2)c1
IC50 [1]: 2.4 µM
IC50 (MDA-MB-468): 3 µM
IC50 (MCF-10A): 100 µM
half-life [2]: 1 min
half-life [3]: 0.9 min
half-life [4]: 2.5 min
CLH [5]: 1589.7 mL/min/g
CLH [6]: 2378.4 mL/min/g
CLH [7]: 835.6 mL/min/g

Molecule: CCOC(=O)c1sc(NC(=O)c2ccco2)c(SC#N)c1C
IC50 (MDA-MB-468): 20.9 µM
IC50 (MCF-10A): 57.2 µM

Molecule: COc1ccccc1-c1csc(NC(=O)c2ccc(S(=O)(=O)Nc3cccc(C(C)=O)c3)cc2)n1
IC50 [1]: 2.2 µM
IC50 (MDA-MB-468): 5.5 µM
IC50 (MCF-10A): > 100 µM
half-life [2]: 26 min
half-life [3]: 2.5 min
half-life [4]: 13.7 min
CLH [5]: 82 mL/min/g
CLH [6]: 838.8 mL/min/g
CLH [7]: 153 mL/min/g

Molecule: CNC(=O)c1cccc(NS(=O)(=O)c2ccc(C(=O)Nc3nc(-c4ccccc4)cs3)cc2)c1
IC50 [1]: 4.96 µM
IC50 (MDA-MB-468): 15 µM
IC50 (MCF-10A): > 100 µM

Molecule: CC(=O)c1cccc(NS(=O)(=O)c2ccc(C(=O)Nc3nc(-c4ccc(F)cc4)cs3)cc2)c1
IC50 [1]: 2.6 µM
IC50 (MDA-MB-468): 11.7 µM
IC50 (MCF-10A): 100 µM

Molecule: COC(=O)CS(=O)(=O)c1ccc([C@@H](CO)NC(=O)c2cc3c(Cl)cc(C)cc3n2C)cc1
IC50 [1]: 0.162 µM
IC50 (MDA-MB-468): 27.9 µM
IC50 (MCF-10A): > 100 µM

Molecule: O=C(Nc1nc(-c2ccccc2)cs1)c1ccc(S(=O)(=O)Nc2cccc(CO)c2)cc1
IC50 [1]: 7.74 µM
IC50 (MDA-MB-468): 10.1 µM
IC50 (MCF-10A): > 100 µM

IC50 [1]: 11.4 µM
Molecule: CN1CCN(CCNS(=O)(=O)c2ccc(C(=O)Nc3nc(-c4ccccc4)cs3)cc2)CC1

IC50 [1]: 17.2 µM
Molecule: CC(=O)c1cccc(NS(=O)(=O)c2ccc(C(=O)Nc3nc(-c4ccc(F)c(F)c4)cs3)cc2)c1

Molecule: CN1CCN(c2cccc(NS(=O)(=O)c3ccc(C(=O)Nc4nc(-c5ccccc5)cs4)cc3)c2)CC1
IC50 [1]: 6.16 µM
IC50 (MDA-MB-468): 9.7 µM
IC50 (MCF-10A): 25.5 µM

IC50 [1]: 10.8 µM
Molecule: O=C(Nc1nc(-c2ccccc2)cs1)c1ccc(S(=O)(=O)NCCN2CCOCC2)cc1

IC50 [1]: 12.2 µM
Molecule: O=C(Nc1nc(-c2ccccc2)cs1)c1ccc(S(=O)(=O)N2CCC(CCO)CC2)cc1

Molecule: CC(=O)c1cccc(NS(=O)(=O)c2ccc(C(=O)Nc3nc(-c4ccccc4F)cs3)cc2)c1
IC50 [1]: 3.8 µM
IC50 (MDA-MB-468): 65.4 µM
IC50 (MCF-10A): 62.9 µM

Molecule: O=C(Nc1nc(-c2ccccc2)cs1)c1ccc(S(=O)(=O)Nc2cccc(CCO)c2)cc1
IC50 [1]: 7.49 µM
IC50 (MDA-MB-468): 8.1 µM
IC50 (MCF-10A): 93.4 µM

IC50 [1]: 15.8 µM
Molecule: O=C(O)CNS(=O)(=O)c1ccc(C(=O)Nc2nc(-c3ccccc3)cs2)cc1

Molecule: CC(=O)c1cccc(NS(=O)(=O)c2ccc(C(=O)Nc3nc(-c4cccc(O)c4)cs3)cc2)c1
IC50 (MDA-MB-468): 69.3 µM
IC50 (BT-20): 69.3 µM
IC50 (PC-9): > 100 µM
IC50 (NCI-H1975): 89.7 µM
IC50 (HCT-116): 84.7 µM
IC50 (HCC827): 55.7 µM

B1: D-3-phosphoglycerate dehydrogenase (Homo sapiens), O43175 (protein)
chain: T1 sequence (O43175 whole entry)
Km [10]: 72.9 µM
Km [11]: 64 µM
Km [12]: 51.6 µM
Km [13]: 33.4 µM
Km [14]: 448 µM
Km [15]: 495 µM
Km [16]: 510 µM
